Results taken from patent US20140323573A1, “METABOLIZABLE SALTS AND USE THEREOF IN DIAGNOSTICS AND THERAPY” (priority 2011, published 2014).
Structures can show the parent of a compound that is named as a salt. Where two headings read alike, the source gives them in different places.

Experiments:
[1] = Osmotic coefficient and osmolality of solutions; format: physicochemical
Text: a) Osmotic Coefficients of Compounds According to the Invention and not According to the Invention

[2] = cited from earlier work; for pK-values (first value) / pK-values (second value) / pK-values (third value): Table I, 37° C.
[3] = Buffer properties / acid-base data of 0.1 molar salt solutions (37° C.); settings: 0.1 molar solution; for NaOH ΔpH 7.2-7.6: NaOH necessary for ΔpH of 7.2-7.6; for Titr. on 7.4: NaOH necessary to set pH 7.4; for β (at 7.4) buffer capacity: calculated from NaOH for ΔpH 7.2-7.6
Text: NaOH mmol/l for ΔpH of 7.2-7.6: how much NaOH in mmol/l is necessary for that ΔpH.
2. β (mmol/l/pH): the buffer capacity calculated therefrom at pH 7.40.
Titr on 7.4 (mmol/l): how much NaOH is necessary to set a pH-value of 7.4.
If a physiological pH-value of 7.4 is to be set in a 0.1 molar solution then the corresponding additives are specified in the column Titration pH=7.4. It is therefore specified how much NaOH (mmol/l) is to be added to set that pH-value.

[4] = Feed of bicarbonate: arginine / arginine acetate solution equilibrated with CO2; format: physicochemical; settings: ionic strength 160 mmol/l and 37° C.
Procedure: If a solution with 48 mmol/l arginine is mixed with 24 mmol/l acetic acid that gives a mixture respectively comprising 24 mmol/l arginine and arginine acetate with a pH-value of about 8.6. That pH-value corresponds to the effective pK value of arginine (ionic strength 160 mmol/l and 37° C.). If that solution is necessarily equilibrated after infusion in the patient to a pCO2 of about 40 mmHg a maximum of 24 mmol/l arginine HCO3 will occur. Thus the physiological values of about 24 mmol/l HCO3 and a pH-value of about 7.4 will occur (for comparison arginine equilibration with pure CO2 in Table 1).

[5] = 0.1 molar solution, (literature); cited from earlier work

SMILES: N=C(N)NCCC[C@H](N)C(=O)O.O=C(O)O [Arg HCO3]
- Osmot. valence [1]: 2
- Osmot. coefficient ([1]; 0.1 molar solution): 0.833
- Osmot. coefficient ([1]; 0.2 m, 100% CO2 at 37° C.): 0.2 m 0.833 100% CO2 at 37 °C
- Osmot. coefficient ([1]; 0.3 m, 100% CO2 at 37° C.): 0.3 m 0.763 100% CO2 at 37 °C

SMILES: Cl.N=C(N)NCCC[C@H](N)C(=O)O [Arg HCl, arginine hydrochloride]
- Osmot. valence [1]: 2
- Osmot. coefficient ([1]; 0.1 molar solution): 0.895

SMILES: CC(=O)O.N=C(N)NCCC[C@H](N)C(=O)O [Arg acetate, arginine acetate]
- pK [2]: 4.6
- pH [3]: 5.99
- NaOH ΔpH 7.2-7.6 [3]: 2.8 mmol/L
- Titr. on 7.4 [3]: 7.3 mmol/L
- β (at 7.4) buffer capacity [3]: 7.0 mmol/l/pH

SMILES: N=C(N)NCCC[C@H](N)C(=O)O [Arginine, arginine]
- pK-values (first value) [2]: 2.0
- pK-values (second value) [2]: 9.0
- pK-values (third value) [2]: 12.1
- pH [3]: 10.26
- effective pK value [4]: about 8.6
- Osmot. valence [1]: 1
- Osmot. coefficient ([1]; 0.1 molar solution): 0.980
- osmolality ([1]; 0.1 molar solution): 98 mosmol/kg H2O

SMILES: O=C(O)O [HCO3^−]
- pK [2]: 6.1

SMILES: O=S(=O)(O)CCN1CCN(CCO)CC1 [Hepes]
- pK [2]: 7.35

SMILES: O=C(O)CC(O)(CC(=O)O)C(=O)O [K3 citrate]
- Osmot. valence [1]: 4
- Osmot. coefficient ([1]; 0.1 molar solution): 0.681

SMILES: O=C(O)CC(O)(CC(=O)O)C(=O)O [Lys3 citrate, tri-lysine citrate]
- pH [3]: 6.88
- NaOH ΔpH 7.2-7.6 [3]: 5.9 mmol/L
- Titr. on 7.4 [3]: 5.8 mmol/L
- β (at 7.4) buffer capacity [3]: 14.8 mmol/l/pH
- Osmot. coefficient ([1]; 0.1 molar solution): 0.715

SMILES: CC(=O)O.NCCCC[C@H](N)C(=O)O [Lysine Acetate, lysine acetate]
- pH [3]: 5.99
- NaOH ΔpH 7.2-7.6 [3]: 2.5 mmol/L
- Titr. on 7.4 [3]: 6.8 mmol/L
- β (at 7.4) buffer capacity [3]: 6.3 mmol/l/pH

SMILES: NCCCC[C@H](N)C(=O)O [Lysine, lysine]
- pK-values (first value) [2]: 2.2
- pK-values (second value) [2]: 8.9
- pK-values (third value) [2]: 10.3
- pH [3]: 9.55
- Osmot. valence [1]: 1
- Osmot. coefficient ([1]; 0.1 molar solution): 1.000

SMILES: N [NH4^+]
- pK [2]: 9.0

SMILES: O=C(O)CC(O)(CC(=O)O)C(=O)O [Na3 citrate]
- Osmot. valence [1]: 4
- Osmot. coefficient ([1]; 0.1 molar solution): 0.681

SMILES: [Cl-].[Na+] [NaCl]
- Osmot. coefficient [5]: 0.926
- Osmot. valence [1]: 2

SMILES: O=C([O-])O.[Na+] [NaHCO3]
- Osmot. valence [1]: 2
- Osmot. coefficient ([1]; 0.1 molar solution, (assumed)): 0.926

SMILES: NC(CO)(CO)CO [Tris]
- pK [2]: 8.2

SMILES: CC(=O)O [acetic acid]
- pK-values (first value) [2]: 4.6

SMILES: O=C(O)O [carbonic acid]
- pK-values (first value) [2]: 6.1

SMILES: O=C(O)CC(O)(CC(=O)O)C(=O)O [citric acid]
- pK-values (first value) [2]: 3.0
- pK-values (second value) [2]: 4.4
- pK-values (third value) [2]: 5.8
- Osmot. valence [1]: 3
- Osmot. coefficient ([1]; 0.1 molar solution): 0.555

SMILES: O=C(O)CC(O)C(=O)O (stereo not shown) [malic acid]
- pK-values (first value) [2]: 3.5
- pK-values (second value) [2]: 4.7
